Results as given in patent US11434232B2, “ATR inhibitor and application thereof” (WUXI BIOCITY BIOPHARMACEUTICS CO., LTD., priority 2018, dated 2022).

Tests used:
human ATR kinase = human ATR kinase (Homo sapiens (Human), UniProt Q13535); assay: In vitro evaluation of inhibitory activity on human ATR kinase (HTRF, ATR/ATRIP(h), GST-cMyc-p53 substrate); format: biochemical; settings: 50 nM GST-cMyc-p53, 30 min room temperature
Protocol: IC50 values were determined to evaluate the inhibitory activity of the tested compounds on human ATR kinase.
ATR/ATRIP(h) was incubated in assay buffer containing 50 nM GST-cMyc-p53 and Mg/ATP (according to concentration required). The reaction was initiated by adding Mg/ATP mixture. After incubating for 30 min at room temperature, a stop solution containing EDTA to was added to terminate the reaction. Finally, detecting buffer containing d^2-labeled anti-GST monoclonal antibody and europium-labeled anti-phospho Ser15 antibody against phosphorylated p^53 were added. Then the plate was read in time-resolved fluorescence mode and homogeneous time resolution was performed.
The fluorescence (HTRF) signal was determined according to the formula HTRF=10000×(Em665 nm/Em620 nm).
IC50 data was analyzed using XLFit version 5.3 (ID Business Solutions). Non-linear regression analysis was used to fit the sigmoidal dose response (variable slope) curve.

tumor cell line LoVo = assay: In vitro cell viability test (CellTiter-Glo), LoVo cell proliferation inhibition; format: cell-based; settings: Homo sapiens
Protocol: In this experiment, inhibitory effect of the compounds on cell proliferation was investigated by testing influence on cell viability in vitro in tumor cell line LoVo.
CellTiter-Glo Luminescence Cell Viability Test
The following protocols were performed according to instruction of PromegaCellTiter-Glo Luminescence cell viability test Kit (Promega-G7573). • (1) Thawing CellTiter-Glo buffer and allowing it to acclimate to room temperature. • (2) Allowing CellTiter-Glo substrate to acclimate to room temperature. • (3) Adding CellTiter-Glo buffer to a bottle of CellTiter-Glo substrate to dissolve the substrate to prepare CellTiter-Glo working solution. • (4) Vortexing slowly to full dissolution. • (5) Removing the cell culture plate and balancing it to room temperature for 30 min. • (6) Adding 50 μL (equivalent to half volume of cell culture medium in each well) of CellTiter-Glo working solution to each well, wrapping the cell plate with aluminum foil to protect from light. • (7) Shaking the culture plate on an orbital shaker for 2 min to induce cell lysis. • (8) Placing the culture plate at room temperature for 10 min to stabilize the luminescence signal. • (9) Detecting the luminescence signal on SpectraMax i3× of Molecular Devices plate reader. Data Analysis
The following formula was used to calculate the inhibition rate of the test compound (Inhibition rate, IR): IR(%)=(1−(RLU Compound−RLU Blank control)/(RLU Vehicle control−RLU Blank control))*100%.
The inhibition rates of different concentrations of compounds were calculated in Excel, and GraphPad Prism software was used to make the inhibition curve and calculate relevant parameters, including the minimum inhibition rate, the maximum inhibition rate and IC50.

[1] = Pharmacokinetic properties in vivo in female Balb/c Nude mice; set-up: species or system mouse; settings: for AUC(0-t) / Cmax / half-life / clearance / C0 / Vd: mouse, plasma; for C0: drug concentration at 0 min; for Vd: read-out: Vdss; for F: oral bioavailability, 10 mg/kg oral vs 1 mg/kg IV
Protocol: Experimental method: The purpose of this study was to determine the pharmacokinetic parameters of the compounds and calculate the oral bioavailability in female Balb/c Nude mice.
The project involved 6 female Balb/c Nude mice. 3 mice were administered intravenously at a dose of 1 mg/kg, and plasma samples were collected at 0 h (before administration) and 0.0833, 0.25, 0.5, 1, 2, 4, 6, 8 and 24 h after administration, other 3 mice were given by oral gavage at a dose of 10 mg/kg or 25 mg/kg, and plasma samples were collected at 0 h (before dosing) and 0.5, 1, 2, 3, 4, 6, 8, 24 h after administration. Then LC/MS/MS analysis was performed for the collected samples and data was collected. The collected analysis data was calculated for relevant pharmacokinetic parameters with Phoenix WinNonlin 6.2.1 software.

[2] = system: human colorectal cancer LoVo cell subcutaneous xenograft; assay: In vivo efficacy in colorectal cancer LoVo CDX model; set-up: species or system mouse; settings: 25 mg/kg orally twice a day, day 17 of administration, vs vehicle control group
Source text: LoVo is a colorectal adenocarcinoma tumor cell line with MRE11A mutation (MRE11A is a key component of DNA double-strand break repairing ATM signaling pathway), which is sensitive to ATR inhibitor. In this experiment, the colorectal cancer LoVo CDX model was used to verify the inhibitory effect of ATR inhibitor as monotherapy on tumors with defect in ATM signaling pathway.
Human colorectal cancer LoVo cells (ECACC, CatLog: 87060101), in vitro monolayer culture, culture conditions: Ham's F-12 medium with 10% fetal bovine serum, 100 U/mL penicillin, 100 μg/mL streptomycin and 2 mM glutamine, 37° C., 5% CO2 culture. General passage with trypsin-EDTA digestion was performed twice a week. When the cell saturation was 80%-90%, the cells were collected, counted, and inoculated. 0.1 mL (10×10^6) of LoVo cells were subcutaneously inoculated into the right back of each nude mouse. When the mean tumor volume reached 173 mm^3, grouping and administration were initiated.
25.51 mg of WX15 was weighed and dissolved in 0.500 mL of DMSO, which were added with 2.000 mL of propylene glycol and 2.500 mL of deionized water, vortexed for homogeneous mixing, adjusted to PH=6.0, to obtain a clear solution. The preparing processes of Compound WX42, Compound WX45, Compound WX46 were referred to Compound WX15.
Dosage: All test compounds were administered orally at 25 mg/kg twice a day, with an interval of 8 h in a day.
A vernier caliper was used to measure the tumor diameter twice a week. The formula for calculating the tumor volume: V=0.5a×b^2, a and b represent the long and short diameters of the tumor, respectively. Antitumor efficacy of the compound was evaluated by TGI (%) or relative tumor proliferation rate T/C (%). Relative tumor proliferation rate T/C (%)=TRTV/CRTV×100% (TRTV: mean RTV value of treatment group; CRTV: mean RTV value of negative control group). The relative tumor volume (relative tumor volume, RTV) was calculated based on the tumor measurement results and the calculation formula was RTV=Vt/V0, where V0 is the tumor volume measured at grouping administration (i.e. D0), Vt is the tumor volume at a measurement, and data on the same day was used for TRTV and CRTV.
TGI (%) reflects the tumor growth inhibition rate. TGI (%)=[1−(mean tumor volume at the end of administration in a treatment group−mean tumor volume at the beginning of administration in this treatment group)/(mean tumor volume at the end of treatment in the solvent control group−mean tumor volume at the beginning of treatment in the solvent control group)]×100%.

Sequence of human ATR kinase (Q13535 whole entry): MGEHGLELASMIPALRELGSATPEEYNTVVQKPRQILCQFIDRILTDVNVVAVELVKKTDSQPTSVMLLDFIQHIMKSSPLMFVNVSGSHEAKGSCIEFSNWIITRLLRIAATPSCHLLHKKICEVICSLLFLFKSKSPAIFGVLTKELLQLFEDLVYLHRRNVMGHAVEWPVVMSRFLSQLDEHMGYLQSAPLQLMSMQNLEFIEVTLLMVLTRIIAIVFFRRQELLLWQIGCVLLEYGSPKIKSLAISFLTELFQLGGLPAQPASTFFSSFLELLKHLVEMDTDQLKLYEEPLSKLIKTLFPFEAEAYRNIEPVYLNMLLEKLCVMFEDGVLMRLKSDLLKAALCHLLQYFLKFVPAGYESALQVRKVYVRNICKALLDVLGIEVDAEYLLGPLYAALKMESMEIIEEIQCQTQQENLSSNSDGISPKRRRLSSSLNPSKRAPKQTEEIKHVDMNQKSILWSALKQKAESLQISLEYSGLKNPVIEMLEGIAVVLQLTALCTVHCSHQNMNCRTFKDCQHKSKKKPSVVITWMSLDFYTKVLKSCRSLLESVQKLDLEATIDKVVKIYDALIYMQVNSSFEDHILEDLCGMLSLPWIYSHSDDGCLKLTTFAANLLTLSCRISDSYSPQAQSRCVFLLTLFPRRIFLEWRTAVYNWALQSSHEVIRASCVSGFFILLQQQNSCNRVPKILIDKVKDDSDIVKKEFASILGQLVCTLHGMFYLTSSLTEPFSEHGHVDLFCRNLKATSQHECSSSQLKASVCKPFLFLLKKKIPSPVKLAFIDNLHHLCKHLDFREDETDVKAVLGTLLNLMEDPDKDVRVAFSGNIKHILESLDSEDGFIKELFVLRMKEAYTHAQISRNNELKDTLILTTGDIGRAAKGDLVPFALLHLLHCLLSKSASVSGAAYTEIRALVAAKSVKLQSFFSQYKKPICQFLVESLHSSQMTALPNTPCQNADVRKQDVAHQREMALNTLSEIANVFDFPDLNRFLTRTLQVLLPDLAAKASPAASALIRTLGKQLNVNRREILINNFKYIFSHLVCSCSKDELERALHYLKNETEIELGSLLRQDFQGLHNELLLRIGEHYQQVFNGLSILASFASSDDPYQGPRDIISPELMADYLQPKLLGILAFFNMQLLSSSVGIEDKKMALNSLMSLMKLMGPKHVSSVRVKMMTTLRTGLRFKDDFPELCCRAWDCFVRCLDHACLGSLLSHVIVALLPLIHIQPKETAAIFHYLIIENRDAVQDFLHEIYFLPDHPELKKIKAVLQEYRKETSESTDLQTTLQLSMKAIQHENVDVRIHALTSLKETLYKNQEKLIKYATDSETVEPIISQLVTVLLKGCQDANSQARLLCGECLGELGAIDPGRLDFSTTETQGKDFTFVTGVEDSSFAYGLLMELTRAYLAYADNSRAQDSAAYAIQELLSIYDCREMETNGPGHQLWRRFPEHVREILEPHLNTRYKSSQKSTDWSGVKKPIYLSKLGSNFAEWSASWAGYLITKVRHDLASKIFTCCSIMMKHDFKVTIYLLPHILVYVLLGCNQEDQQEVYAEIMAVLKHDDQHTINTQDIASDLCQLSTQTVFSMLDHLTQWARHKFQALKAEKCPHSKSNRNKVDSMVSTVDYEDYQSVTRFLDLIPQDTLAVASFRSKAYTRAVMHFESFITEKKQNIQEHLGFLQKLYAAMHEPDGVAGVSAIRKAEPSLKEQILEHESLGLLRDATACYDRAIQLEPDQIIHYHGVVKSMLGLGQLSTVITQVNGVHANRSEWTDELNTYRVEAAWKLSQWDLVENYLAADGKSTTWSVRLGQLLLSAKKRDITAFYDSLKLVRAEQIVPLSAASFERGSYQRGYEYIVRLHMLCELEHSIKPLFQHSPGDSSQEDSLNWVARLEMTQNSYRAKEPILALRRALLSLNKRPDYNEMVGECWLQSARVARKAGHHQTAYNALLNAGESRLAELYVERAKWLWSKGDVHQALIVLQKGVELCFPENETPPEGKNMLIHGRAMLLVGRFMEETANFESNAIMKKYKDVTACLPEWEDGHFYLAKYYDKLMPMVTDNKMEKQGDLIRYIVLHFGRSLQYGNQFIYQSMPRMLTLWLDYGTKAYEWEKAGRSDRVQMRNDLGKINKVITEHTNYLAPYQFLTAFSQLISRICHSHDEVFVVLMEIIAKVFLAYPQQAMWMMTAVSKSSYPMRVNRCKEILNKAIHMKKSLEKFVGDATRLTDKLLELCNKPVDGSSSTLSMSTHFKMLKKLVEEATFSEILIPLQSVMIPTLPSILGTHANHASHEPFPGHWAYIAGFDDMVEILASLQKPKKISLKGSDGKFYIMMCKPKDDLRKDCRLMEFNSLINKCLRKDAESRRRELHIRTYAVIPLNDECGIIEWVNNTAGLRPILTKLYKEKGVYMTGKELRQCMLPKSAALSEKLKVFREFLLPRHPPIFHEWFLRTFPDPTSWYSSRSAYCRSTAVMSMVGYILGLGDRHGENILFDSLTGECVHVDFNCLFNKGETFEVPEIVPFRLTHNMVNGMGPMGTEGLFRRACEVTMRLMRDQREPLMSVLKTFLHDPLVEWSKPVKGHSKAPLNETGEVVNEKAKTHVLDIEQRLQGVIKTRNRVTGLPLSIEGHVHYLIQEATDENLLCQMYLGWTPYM
Sequence of human ATR kinase (Q8WXE1 whole entry partner): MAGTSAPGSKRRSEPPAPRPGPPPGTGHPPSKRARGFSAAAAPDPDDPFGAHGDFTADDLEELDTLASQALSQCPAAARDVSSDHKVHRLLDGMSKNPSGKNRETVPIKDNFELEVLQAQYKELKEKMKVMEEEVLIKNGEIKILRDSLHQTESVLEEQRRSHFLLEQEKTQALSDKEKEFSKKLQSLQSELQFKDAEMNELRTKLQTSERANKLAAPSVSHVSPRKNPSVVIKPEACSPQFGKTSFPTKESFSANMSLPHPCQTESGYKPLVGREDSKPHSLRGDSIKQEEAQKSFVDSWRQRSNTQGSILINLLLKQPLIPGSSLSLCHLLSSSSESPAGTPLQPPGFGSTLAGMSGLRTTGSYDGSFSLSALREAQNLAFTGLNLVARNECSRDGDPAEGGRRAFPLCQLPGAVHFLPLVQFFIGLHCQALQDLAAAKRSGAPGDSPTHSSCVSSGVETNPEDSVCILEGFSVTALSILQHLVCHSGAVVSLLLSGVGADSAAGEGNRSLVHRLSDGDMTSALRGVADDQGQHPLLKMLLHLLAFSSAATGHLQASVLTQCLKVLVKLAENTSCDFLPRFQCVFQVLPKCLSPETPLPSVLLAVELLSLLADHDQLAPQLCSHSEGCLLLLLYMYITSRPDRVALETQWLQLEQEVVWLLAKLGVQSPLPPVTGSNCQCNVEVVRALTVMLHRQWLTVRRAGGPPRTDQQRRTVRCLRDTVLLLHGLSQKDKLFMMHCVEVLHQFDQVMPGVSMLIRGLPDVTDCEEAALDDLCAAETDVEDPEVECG

| SMILES | IC50 (human ATR kinase) [nM] | IC50 (tumor cell line LoVo) [nM] | AUC(0-t) ([1]; 25 mg/kg oral gavage) [µM·h] | Cmax ([1]; 25 mg/kg oral gavage) [µM] | half-life ([1]; 25 mg/kg oral gavage) [h] | T/C (relative tumor proliferation rate) [2] [%] | TGI (tumor growth inhibition rate) [2] [%] | AUC(0-t) ([1]; 1 mg/kg IV) [µM·h] | clearance ([1]; 1 mg/kg IV) [mL/min/kg] | half-life ([1]; 1 mg/kg IV) [h] | C0 ([1]; 1 mg/kg IV) [µM] | Vd ([1]; 1 mg/kg IV) [L/kg] | AUC(0-t) ([1]; 10 mg/kg oral gavage) [µM·h] | Cmax ([1]; 10 mg/kg oral gavage) [µM] | half-life ([1]; 10 mg/kg oral gavage) [h] | F [1] [%] |
| --- | --- | --- | --- | --- | --- | --- | --- | --- | --- | --- | --- | --- | --- | --- | --- | --- |
| Cc1nnc(C)n1-c1cc(N2CCOC[C@H]2C)nc(-c2cc(F)cc3[nH]ccc23)n1 [WX46] | 31 | 350 | 26.2 | 10.6 | 0.892 | 43.8 | 79.9 | – | – | – | – | – | – | – | – | – |
| Cc1cnn(C)c1-c1cc(N2CCOC[C@H]2C)nc(-c2cc(CO)cc3[nH]ccc23)n1 [WX42] | 29 | 510 | – | – | – | 27.8 | 90.7 | 1.09 | 34.3 | 2.57 | 1.96 | 2.21 | 15 | 6.5 | 2.02 | 129.0 |
| Cc1nnc(C)n1-c1cc(N2CCOC[C@H]2C)nc(-c2cccc3[nH]ccc23)n1 [WX45] | 69 | 750 | – | – | – | 32.3 | 79.9 | 0.88 | 48.3 | 0.99 | 1.58 | 2.59 | 10.9 | 7.72 | 1.69 | 123.0 |
| C[C@@H]1COCCN1c1cc(-c2ccnn2C)nc(-c2ccnc3[nH]ccc23)n1 [WX15] | 159 | 410 | – | – | – | 46.7 | 66.8 | 0.905 | 47 | 0.78 | 1.96 | 2.21 | 8.75 | 4.56 | 1.23 | 96.0 |
